Measurements published in EP0115640A2, “Substituted 4-imidazolyl-pyrazoles, process for their preparation and medicaments containing them” (BAYER AG, priority 1983, dated 1984).

System: Thrombozytenaggregation
Assay: Inhibition of collagen-induced platelet aggregation in platelet-rich plasma (turbidimetric method, aggregometer)
Type: cell-based, Human
Conditions: Homo sapiens, Platelet; PRP, 37°C, aggregation triggered with Kollagensuspension; minimal concentration that inhibits aggregation; read-out: Hemmung der Thrombozytenaggregation minimal effektive Konzentration
Text: Thrombozytenaggregationshemmung
Für die Bestimmung der thrombozytenaggregationshemmenden Wirkung wurde Blut von gesunden Spendern, die mindestens 14 Tage lang kein Medikament eingenommen hatten, verwendet. Das Blut wurde in 3,8 %-iger Natriumcitratlösung aufgenommen. Plättchenreiches Plasma (PRP) wurde durch 20 Minuten Zentrifugation bei 150 g und Raumtemperatur gewonnen (Jürgens/Beller: Klinische Methoden der Blutgerinnungsanalyse; Thieme-Verlag Stuttgart 1959). Die Plättchenaggregation wurde nach der turbidometrischen Methode (Born, G.V.R.: J. Physiol. 162, 67 (1962)) im Aggregometer bei 37°C bestimmt. Hierzu wurde PRP mit Prüfsubstanz bei 37°C inkubiert und anschließend die Aggregation durch Zugabe einer Kollagensuspension ausgelöst. Bestimmt wurde die minimale Konzentration einer Prüfsubstanz, die die Thrombozytenaggregation hemmte.
In diesem Test wird die Thrombozytenaggregation insbesondere durch die Verbindungen folgender Herstellungsbeispiele gehemmt: 1, 2, 9 und 15.

Row | Structure (SMILES) | minimal effective concentration [µg/mL]
1 | Cn1cc(-n2ccnc2)c(C(C)(C)COc2ccc(Cl)cc2)n1 [Beispiel 15] | 30
2 | c1c[nH]cn1 [Imidazol] | 30

Same assay, conditions: result in words, PRP, collagen-induced

Row | Structure (SMILES) | Thrombozytenaggregation gehemmt
3 | CC(C)(C)c1n[nH]cc1-n1ccnc1 [Beispiel 1] | gehemmt
4 | Cn1cc(-n2ccnc2)c(C(C)(C)C)n1 [Beispiel 2, 3-tert.-Butyl-1-methyl-4-(imidazol-1-yl)-pyrazol] | gehemmt
5 | CC(C)(COc1ccc(Cl)cc1Cl)c1n[nH]cc1-n1ccnc1 [Beispiel 9] | gehemmt
6 | Cn1cc(-n2ccnc2)c(C(C)(C)COc2ccc(Cl)cc2)n1 [Beispiel 15] | gehemmt
